Test results reported in patent US20240049720A1, “A SYNERGISTIC AGRICULTURAL COMPOSITION” (priority 2021, published 2024).

Experiments:
Erwinia amylovora = test: Foliar application on apple trees (var. gala), control of Erwinia amylovora; format: in vivo; details: apple plants var. Gala; foliar spray, three applications every 7 days; kasugamycin 3.15 g/kg and/or copper 8 g/kg (17.32 g/kg copper monoglycinate)
Description: Example 4: Foliar Application of Kasugamycin and Copper Glycinate in Apple Trees (var. gala) for Controlling Erwinia amylovora
Apple trees (var. gala) were foliar sprayed with formulations having kasugamycin alone, copper glycinate alone, and combination of kasugamycin and copper glycinate. The formulation having Kasugamycin alone was applied at a dosage of 3.15 g/kg of kasugamycin (3.45 g/kg of kasugamycin hydrochloride hydrate). The formulation having copper monoglycinate was applied at a dosage of 8 g/kg of copper (17.32 g/kg of copper monoglycinate). The formulation having kasugamycin and copper monoglycinate was applied at a dosage of 3.15 g/kg of kasugamycin (3.45 g/kg of kasugamycin hydrochloride hydrate) and 8 g/kg of copper (17.32 g/kg of copper monoglycinate).
Three applications were made every 7 days when the first symptoms of the disease appeared, and the % control of Erwinia amylovora was determined. Control percentage of Erwinia amylovora with the K+CuGly mixture, as well as of kasugamycin and copper monoglycinate separately, are provided in Table 3 below: […]

Alternaria alternata = test: In vitro control of Alternaria alternata on PDA medium; format: cell-based; details: dose 1 L/400 L water, mixture in 1:1 ratio, 28-30° C, dark, evaluated 7 days later
Experimental: In Vitro Control of Alternaria alternata Using Kasugamycin and Copper Glycinate
Alternaria alternata was cultivated was in solid potato dextrose agar medium. The efficacy of the mixture of kasugamycin and copper glycinate in a 1:1 ratio, and each component individually was tested.
(§1) The in vitro assessment of the products effectiveness was carried out as per the treatments discussed in Table 6. Accordingly, the components in each treatment were dissolved in PDA culture medium at the dose indicated above. The mixture was homogenized and poured into sterile petri dishes. Explants of 5 mm diameter of the fungus strain Alternaria alternata were placed on the petri dishes with PDA. The dishes were incubated inverted, in dark conditions at a temperature of 28-30° C. The evaluation of the inhibition of the fungus was carried out 7 days later. Control percentage of Alternaria alternata with the K+CuGly mixture, as well as of kasugamycin and copper monoglycinate separately are provided in Table 5 below: […]

[1] = system: Xanthomonas campestris pv. vesicatoria; test: Foliar application on tomato plants (var. Pony express), control of bacterial disease; format: in vivo; details: foliar spray, three applications every 7 days, kasugamycin 2.1 g/kg and/or copper 8 g/kg (17.32 g/kg copper monoglycinate)
Description: Example 3: Foliar Application of Kasugamycin and Copper Glycinate in Tomato Plants (Var. Pony Express) for Controlling Xanthomonas campestris pv. vesicatoria
Tomato plants (var. Pony express) were foliar sprayed with formulations having kasugamycin alone, copper monoglycinate alone, and combination of kasugamycin and copper monoglycinate. The formulation having kasugamycin alone was applied at a dosage of 2.1 g/kg of kasugamycin (2.3 g/kg of kasugamycin hydrochloride hydrate) and the treatment was designated as T1. The formulation having copper monoglycinate was applied at a dosage of 8 g/kg of copper (17.32 g/kg of copper monoglycinate) and the treatment was designated as T2. The formulation having kasugamycin and copper monoglycinate was applied at a dosage of 2.1 g/kg of kasugamycin (2.3 g/kg of kasugamycin hydrochloride hydrate) and 8 g/kg of copper (17.32 g/kg of copper monoglycinate) and the treatment was designated as T3.
Three applications were made every 7 days when the first symptoms of the disease appeared, and the % control of […] was determined. Control percentage of Xanthomonas campestris pv. vesicatoria with the K+CuGly mixture, as well as of kasugamycin and copper glycinate separately are provided in Table 2 below: […]

Fusarium spp = test: In vitro control of Fusarium spp on PDA medium; format: cell-based; details: strain isolated from potato, dose 1 L/400 L water, mixture in 1:1 ratio, 28-30° C, dark, evaluated 7 days later
Experimental: In Vitro Control of Fusarium spp Using Kasugamycin and Copper Glycinate
A strain of Fusarium spp isolated from potato was cultivated was in solid potato dextrose agar medium. The efficacy of the mixture of kasugamycin and copper glycinate in a 1:1 ratio, and each component individually was tested.
as §1, with “Table 4.” for “Table 6.”, “strain Fusarium spp.” for “strain Alternaria alternata”, “of Fusarium sp.” for “of Alternaria alternata”

Compound | % control of Erwinia amylovora (Erwinia amylovora) | % Control of Alternaria alternata (Alternaria alternata) | % control of Xanthomonas campestris pv. vesicatoria [1] | % control of Fusarium sp. (Fusarium spp)
C[C@H]1O[C@H](O[C@H]2[C@H](O)[C@@H](O)[C@@H](O)[C@H](O)[C@@H]2O)[C@@H](N)C[C@@H]1NC(=N)C(=O)O [Kasugamycin] | 55.6% | 79% | 93.2% | 55%
Copper monoglycinate [Copper glycinate] | 50% | 53% | 80.5% | 39%
